Measured values published in publication PMC5972582, “Bidirectional GPR119 Agonism Requires Peptide YY and Glucose for Activity in Mouse and Human Colon Mucosa” (Endocrinology, 2018).
pEC50: −log10 of the molar value.

Target: T1, GPR119 (WT mouse descending colon mucosa) (Mus musculus, UniProt Q7TQP3)
T1 construct: native full-length receptor in L-cells of intact mouse colonic mucosa (Ussing chamber); no recombinant protein
T1 sequence (Q7TQP3 1-335): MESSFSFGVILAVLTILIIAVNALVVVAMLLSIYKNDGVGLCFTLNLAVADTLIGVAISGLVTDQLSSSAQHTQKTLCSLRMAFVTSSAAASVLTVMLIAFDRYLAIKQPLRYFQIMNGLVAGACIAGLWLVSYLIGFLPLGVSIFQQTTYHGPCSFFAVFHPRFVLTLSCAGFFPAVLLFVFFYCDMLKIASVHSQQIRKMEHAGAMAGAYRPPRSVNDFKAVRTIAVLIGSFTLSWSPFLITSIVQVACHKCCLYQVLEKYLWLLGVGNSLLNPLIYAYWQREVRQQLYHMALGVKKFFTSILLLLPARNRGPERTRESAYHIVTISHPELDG
Assay: short-circuit current (Isc) in native mouse descending colon mucosa, Ussing chamber
Details: agonist, apical addition, indirect tissue read-out (PYY-mediated fall in Isc) after 10 nM VIP, 11.1 mM glucose
Source text: short-circuit current (Isc) in native mouse descending colon mucosa, Ussing chamber on GPR119 (WT mouse descending colon mucosa)

Row | Compound | pEC50 | pEC50 (partial agonist)
1 | AR435707 | 7.56 | –
2 | CCCCCCCC/C=C\CCCCCCCC(=O)OC(CO)CO [2-OG] | 5.31 | –
3 | CC(C)c1noc(C2CCN(c3ncnc(Nc4ccc(S(C)(=O)=O)cc4F)c3[N+](=O)[O-])CC2)n1 [AR231453] | – | 8.92

Now from value to compound:

Row | pEC50 | pEC50 (partial agonist) | Compound
4 | 4.83 | – | CCCCCCCC/C=C\CCCCCCCC(=O)NCCO [OEA]
5 | 6.77 | – | AR440006
